Tests used:
[1] = Metabolic stability in rat liver microsomes assessed as half life at 1 uM measured up to 45 mins by LC/MS/MS analysis; type: ADME, Microsome; conditions: 0.75 h
[2] = Stability in human plasma assessed as compound remaining at 1 uM measured immediately by LC-MS/MS analysis; type: ADME, cell-free; conditions: read-out: Stability
[3] = Drug metabolism in human liver microsomes assessed as metabolic fraction at 1 uM measured up to 45 mins by LC/MS/MS analysis; type: ADME, Microsome; conditions: microsomes, 0.75 h, 1 µM
[4] = tested on: Human immunodeficiency virus 1; assay: Antiviral activity against drug-resistant HIV-1 harboring RT Y188L mutant infected in human MT4 cells assessed as protection against virus-induced cytopathicity measured after 5 days post-infection by MTT assay; type: functional, organism-based; conditions: Human immunodeficiency virus 1, MT4, 120 h
[5] = Protein binding in human plasma assessed as drug recovery rate at 1 uM incubated for 6 hrs; type: ADME, cell-free; conditions: read-out: Drug recovery
[6] = biological target: T1, Cytochrome P450 2B6 (Homo sapiens, UniProt P20813); assay: Inhibition of CYP2B6 in human liver microsomes using bupropion as substrate incubated for 15 to 45 mins by; type: ADME, Microsome
T1 sequence (P20813 whole entry): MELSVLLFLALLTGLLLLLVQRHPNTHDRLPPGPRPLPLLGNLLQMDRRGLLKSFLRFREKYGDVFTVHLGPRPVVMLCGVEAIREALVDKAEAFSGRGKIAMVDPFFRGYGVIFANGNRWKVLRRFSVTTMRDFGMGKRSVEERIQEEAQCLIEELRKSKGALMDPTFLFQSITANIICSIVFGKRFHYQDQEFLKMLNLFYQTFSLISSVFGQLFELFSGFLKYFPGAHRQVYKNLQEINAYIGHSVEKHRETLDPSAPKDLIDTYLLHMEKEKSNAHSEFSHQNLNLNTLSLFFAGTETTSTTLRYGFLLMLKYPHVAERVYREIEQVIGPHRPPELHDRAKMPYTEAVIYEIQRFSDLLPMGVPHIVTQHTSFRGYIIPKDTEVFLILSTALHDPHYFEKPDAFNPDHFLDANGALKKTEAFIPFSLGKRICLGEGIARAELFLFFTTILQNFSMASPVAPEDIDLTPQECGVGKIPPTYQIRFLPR

[7] = tested on: Human immunodeficiency virus 1; assay: Antiviral activity against drug-resistant HIV-1 harboring RT Y181C mutant infected in human MT4 cells assessed as protection against virus-induced cytopathicity measured after 5 days post-infection by MTT assay; type: functional, organism-based; conditions: Human immunodeficiency virus 1, MT4, 120 h
[8] = tested on: Human immunodeficiency virus 1; assay: Antiviral activity against drug-resistant HIV-1 harboring RT RES056 mutant infected in human MT4 cells assessed as protection against virus-induced cytopathicity measured after 5 days post-infection by MTT assay; type: functional, organism-based; conditions: Human immunodeficiency virus 1, MT4, 120 h
[9] = tested on: Human immunodeficiency virus 1; assay: Potency index, ratio of EFV EC50 to test compound EC50 for antiviral activity against wild-type HIV-1 IIIB infected in human MT4 cells assessed as protection against virus-induced cytopathicity measured after 5 days post-infection by MTT assay; type: functional
[10] = biological target: Cytochrome P450 2C9 (Homo sapiens, UniProt P11712); assay: Inhibition of CYP2C9 in human liver microsomes using diclofenac as substrate incubated for 15 to 45 mins by; type: ADME, Microsome
[11] = Acute toxicity in ICR mouse assessed as pathological change in kidney at 2000 mg/kg, IG measured for 14 days by H and E staining based analysis; type: organism-based; conditions: in vivo, po, 336 h, time 14 day
[12] = MRT (0 to t) in Sprague-Dawley rat at 10 mg/kg, po measured for 0.083 to 24 hrs by LC-MS/MS analysis; type: ADME, organism-based; conditions: in vivo, time 0.083-24 hrs
[13] = Oral bioavailability in Sprague-Dawley rat at 10 mg/kg measured for 0.083 to 24 hrs by LC-MS/MS analysis; type: ADME, organism-based; conditions: in vivo, time 0.083-24 hrs
[14] = tested on: Human immunodeficiency virus 1; assay: Antiviral activity against drug-resistant HIV-1 harboring RT K103N mutant infected in human MT4 cells assessed as protection against virus-induced cytopathicity measured after 5 days post-infection by MTT assay; type: functional, organism-based; conditions: Human immunodeficiency virus 1, MT4, 120 h
[15] = Cytotoxicity against human MT4 cells assessed as reduction in cell viability by MTT assay; type: toxicity, cell-based
[16] = biological target: Voltage-gated inwardly rectifying potassium channel KCNH2 (Homo sapiens, UniProt Q12809); assay: Inhibition of hERG expressed in CHO cells assessed as fold increase by manual patch-clamp electrophysiology relative to RPV; type: toxicity, cell-based
[17] = Acute toxicity in ICR mouse assessed as pathological change in liver at 2000 mg/kg, IG measured for 14 days by H and E staining based analysis; type: organism-based; conditions: in vivo, po, 336 h, time 14 day
[18] = Drug metabolism in rat liver microsomes assessed as metabolic fraction at 1 uM measured up to 45 mins by LC/MS/MS analysis; type: ADME, Microsome; conditions: 0.75 h
[19] = tested on: Human immunodeficiency virus 1; assay: Antiviral activity against drug-resistant HIV-1 harboring RT E138K mutant infected in human MT4 cells assessed as protection against virus-induced cytopathicity measured after 5 days post-infection by MTT assay; type: functional, organism-based; conditions: Human immunodeficiency virus 1, MT4, 120 h
[20] = Acute toxicity in ICR mouse assessed as body weight change at 2000 mg/kg, IG measured for 14 days; type: organism-based; conditions: in vivo, po, 336 h, time 14 day
[21] = Acute toxicity in ICR mouse assessed as animal mortality at 2000 mg/kg, IG measured for 14 days; type: organism-based; conditions: in vivo, po, 336 h, time 14 day
[22] = Clearance in Sprague-Dawley rat at 1 mg/kg, iv measured for 0.083 to 24 hrs by LC-MS/MS analysis; type: ADME, organism-based; conditions: in vivo, time 0.083-24 hrs
[23] = Half life in Sprague-Dawley rat at 10 mg/kg, po measured for 0.083 to 24 hrs by LC-MS/MS analysis; type: ADME, organism-based; conditions: in vivo, time 0.083-24 hrs
[24] = AUC (0 to t) in Sprague-Dawley rat at 1 mg/kg, iv measured for 0.083 to 24 hrs by LC-MS/MS analysis; type: ADME, organism-based; conditions: in vivo, time 0.083-24 hrs
[25] = biological target: Human immunodeficiency virus type 1 reverse transcriptase (Human immunodeficiency virus 1, UniProt Q72547); assay: Inhibition of recombinant wild type HIV-1 reverse transcriptase incubated for 40 mins in presence of poly(rA) template/oligo(dT)16 primer by Pico-Green dye based analysis
[26] = biological target: T2, Cytochrome P450 1A2 (Homo sapiens, UniProt P05177); assay: Inhibition of CYP1A2 in human liver microsomes using phenacetin as substrate incubated for 15 to 45 mins by; type: ADME, Microsome
T2 sequence (P05177 whole entry): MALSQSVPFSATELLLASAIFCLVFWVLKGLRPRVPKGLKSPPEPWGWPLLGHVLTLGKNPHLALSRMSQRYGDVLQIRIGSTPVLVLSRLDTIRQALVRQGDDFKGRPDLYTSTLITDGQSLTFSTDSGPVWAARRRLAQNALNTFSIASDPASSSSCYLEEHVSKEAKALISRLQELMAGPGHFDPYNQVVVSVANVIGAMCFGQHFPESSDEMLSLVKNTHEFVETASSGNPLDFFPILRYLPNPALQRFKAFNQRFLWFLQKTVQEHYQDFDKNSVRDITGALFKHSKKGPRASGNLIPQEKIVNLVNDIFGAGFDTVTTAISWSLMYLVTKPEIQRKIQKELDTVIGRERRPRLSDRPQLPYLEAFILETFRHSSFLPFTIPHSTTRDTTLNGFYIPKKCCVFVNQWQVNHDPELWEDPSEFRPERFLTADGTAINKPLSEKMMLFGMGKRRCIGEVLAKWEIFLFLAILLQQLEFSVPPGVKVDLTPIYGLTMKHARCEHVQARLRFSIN

Voltage-gated inwardly rectifying potassium channel KCNH2, sequence (Q12809 whole entry): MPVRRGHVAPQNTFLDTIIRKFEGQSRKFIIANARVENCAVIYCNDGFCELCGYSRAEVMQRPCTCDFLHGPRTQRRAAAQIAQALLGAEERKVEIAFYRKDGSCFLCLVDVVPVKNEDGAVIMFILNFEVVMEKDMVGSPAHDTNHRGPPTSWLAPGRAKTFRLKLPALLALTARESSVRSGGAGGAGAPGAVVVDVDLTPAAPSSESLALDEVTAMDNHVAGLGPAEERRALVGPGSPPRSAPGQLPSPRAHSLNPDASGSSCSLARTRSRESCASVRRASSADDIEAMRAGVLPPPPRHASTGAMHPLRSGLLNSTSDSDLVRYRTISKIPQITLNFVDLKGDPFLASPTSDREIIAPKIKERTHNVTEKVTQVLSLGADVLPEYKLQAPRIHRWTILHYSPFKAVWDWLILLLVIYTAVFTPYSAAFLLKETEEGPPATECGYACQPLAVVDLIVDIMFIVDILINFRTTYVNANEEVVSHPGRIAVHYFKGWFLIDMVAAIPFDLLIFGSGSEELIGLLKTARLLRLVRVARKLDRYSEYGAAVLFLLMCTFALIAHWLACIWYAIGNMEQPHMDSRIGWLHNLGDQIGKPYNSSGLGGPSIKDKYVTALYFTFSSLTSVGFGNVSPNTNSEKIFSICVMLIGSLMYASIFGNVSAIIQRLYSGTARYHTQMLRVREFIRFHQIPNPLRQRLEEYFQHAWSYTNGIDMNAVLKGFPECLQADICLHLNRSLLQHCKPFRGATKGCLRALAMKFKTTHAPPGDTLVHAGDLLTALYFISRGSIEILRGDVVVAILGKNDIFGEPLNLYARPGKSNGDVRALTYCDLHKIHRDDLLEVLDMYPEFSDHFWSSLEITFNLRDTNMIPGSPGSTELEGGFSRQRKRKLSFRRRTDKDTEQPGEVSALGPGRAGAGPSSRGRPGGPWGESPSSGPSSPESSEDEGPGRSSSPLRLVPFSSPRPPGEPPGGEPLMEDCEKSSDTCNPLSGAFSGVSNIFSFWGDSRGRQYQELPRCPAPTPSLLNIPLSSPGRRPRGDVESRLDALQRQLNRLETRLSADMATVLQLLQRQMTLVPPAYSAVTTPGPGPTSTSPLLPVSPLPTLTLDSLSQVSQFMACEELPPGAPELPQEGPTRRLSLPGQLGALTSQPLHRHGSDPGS
Cytochrome P450 2C9, sequence (P11712 whole entry): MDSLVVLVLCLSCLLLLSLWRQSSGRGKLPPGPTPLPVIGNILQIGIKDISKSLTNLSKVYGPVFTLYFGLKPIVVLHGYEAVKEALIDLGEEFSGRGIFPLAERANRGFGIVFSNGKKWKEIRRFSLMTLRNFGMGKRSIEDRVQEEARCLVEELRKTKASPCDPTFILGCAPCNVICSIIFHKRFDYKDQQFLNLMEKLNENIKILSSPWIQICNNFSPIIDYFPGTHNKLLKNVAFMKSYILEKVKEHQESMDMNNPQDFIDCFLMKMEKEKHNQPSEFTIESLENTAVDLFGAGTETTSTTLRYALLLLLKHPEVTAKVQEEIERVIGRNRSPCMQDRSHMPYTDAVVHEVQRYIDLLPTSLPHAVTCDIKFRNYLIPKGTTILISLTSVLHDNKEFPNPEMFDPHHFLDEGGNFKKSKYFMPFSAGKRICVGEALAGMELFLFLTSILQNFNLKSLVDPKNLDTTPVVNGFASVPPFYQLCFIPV

[2H]C([2H])([2H])c1cc(C#N)cc(C([2H])([2H])[2H])c1Oc1nc(NC2CCN(Cc3ccc(S(N)(=O)=O)cc3)CC2)nc2ccsc12
t1/2 [1]: 0.32 h | remaining at 0 h, 1 µM [2]: 100% | Fm [3]: 14.8% | EC50 [4]: 5.18 nM | recovery at 6 h, 1 µM [5]: 79.4% | IC50 [6]: > 10000 nM | EC50 [7]: 5.86 nM | EC50 [8]: 75.1 nM | Ratio EC50 [9]: 5 | IC50 [10]: > 10000 nM | Activity [11]: Non-toxic | MRT last [12]: 2.38 h | bioavailability [13]: 29% | EC50 [14]: 1.13 nM | CC50 [15]: > 225000 nM | fold change (FC) [16]: 1.9 | Activity [17]: Non-toxic | Fm [18]: 28.9% | EC50 [19]: 7.75 nM | Activity [20]: Non-toxic | Activity [21]: Non-toxic | clearance [22]: 22.9 mL/min/kg | half-life [23]: 1.58 h | AUC(0-t) [24]: 727 ng·h/mL | IC50 [25]: 190 nM | IC50 [26]: > 10000 nM
